Experimental data: article PMC9220355, “Inhibition of the Peroxygenase Lytic Polysaccharide Monooxygenase by Carboxylic Acids and Amino Acids” (Antioxidants, 2022)
Where two headings read alike, the source gives them in different places.

Assays:
NcLPMO9C [1] = target: T1, NcLPMO9C (Neurospora crassa, UniProt Q7SHI8); settings: for Rate (Light Intensity at 620 nm min^−1): 0.5 µM NcLPMO9C, 1 mM ascorbic acid, 100 µM H2O2, pH 6.0, acetic acid 200 mM, mean ± SD; for activity: pH 6
T1 sequence (Q7SHI8 17-359): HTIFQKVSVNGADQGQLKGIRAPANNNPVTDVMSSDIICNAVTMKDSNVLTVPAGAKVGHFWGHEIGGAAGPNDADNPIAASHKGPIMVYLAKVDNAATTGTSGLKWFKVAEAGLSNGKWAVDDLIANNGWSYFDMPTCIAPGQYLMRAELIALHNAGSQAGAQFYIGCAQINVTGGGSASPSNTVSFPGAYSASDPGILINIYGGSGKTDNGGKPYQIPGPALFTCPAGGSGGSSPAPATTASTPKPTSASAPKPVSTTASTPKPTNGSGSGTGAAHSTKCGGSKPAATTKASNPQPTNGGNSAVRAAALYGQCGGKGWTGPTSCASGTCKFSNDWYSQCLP
Protocol: LPMO activity was measured by the attenuation of optical density at 620 nm at 30 °C in 100 mM sodium acetate, 100 mM sodium citrate, or 100 mM sodium phosphate buffer, pH 6.0. […] The pH was checked before and after the measurements. A total volume of 2.5 mL contained 100 mM of buffer, pH 6.0, 0.8 mg/mL PASC, 0.5 or 1.0 µM of NcLPMO9C, 1 mM ascorbic acid or 1 µM NcCDHIIA with 10 mM lactose. A 10 mm quartz cuvette with a magnetic stirrer was used to maintain a homogeneously mixed PASC suspension.
To measure the inhibition by oxalic acid, the change in light intensity per minute was calculated at different inhibitor concentrations. […] LPMO was reduced with ascorbic acid and mixed with H2O2 to measure the activity.
LPMO peroxygenase activity was tested on PASC using a turbidity assay. Reaction was started with H2O2 and rates were obtained from light-intensity decrease at 620 nm. Assay contained 0.5 µM (A) or 1.0 µM (B) NcLPMO9C, 0.8 mg mL^−1 PASC, 1 mM ascorbic acid and 100 µM H2O2, respectively. H2O2 was added after 30 s to the stirred cuvette and the rate calculated from 40 s up to 200 s, having a data interval for each point of 0.1 s. pH was checked after all measurements and data are expressed as mean values (±SE), from three independent repeats. IC50 values were obtained by a nonlinear curve fit and calculating the oxalic acid concentration of oxalic acid at 50% of the rate.

NcLPMO9C [2] = target: T1, NcLPMO9C; settings: - Ascorbic acid (blank); 4 h, 4 × 100 µM H2O2, 100 mM compound
Protocol: NcLPMO9C (1 µM) was incubated with 2 mg mL^−1 PASC, either 1 mM ascorbic acid or 1 µM NcCDHIIA together with 10 mM lactose as reductant and 400 µM H2O2 (4 × 100 µM) as cosubstrate at a total volume of 1 mL. At the beginning and after every hour, 100 µM H2O2 was added to the reaction. The reaction tubes were closed and continuously mixed in the dark for a total reaction time of 4 h. Reactions were stopped by heating to 95 °C for 10 min. The remaining PASC was removed by centrifugation, and the supernatant was analyzed by HPLC. Soluble cello-oligomers (DP 1–6) were used as standards to quantify LPMO-released products. To test the effect of different buffers or inhibitors, 100 mM sodium acetate buffer, pH 6.0, was supplemented with 100 mM of the different compounds.
We analyzed cello-oligomeric product formation after PASC treatment with NcLPMO9C, which is released as a byproduct of cellulose oxidation. […] Conditions with different buffers and reducing agents were tested. In all experiments, LPMO, PASC and H2O2 were present. As a reducing agent, ascorbic acid was chosen, whereas blank reactions were carried out in the absence of ascorbic acid.
H2O2 was added four times every hour.

NcCDHIIA = test: Amplex Red–horseradish peroxidase assay, background H2O2 production by CDH; format: biochemical, Neurospora crassa; settings: for Specific activity, Background: without LPMO, 1 µM NcCDHIIA, 10 mM lactose, 50 µM AmplexRed, 7 U mL-1 horseradish peroxidase
Protocol: (§1) The Amplex Red–horseradish peroxidase assay was used to measure the uncoupling reaction of NcLPMO9C that produces superoxide or H2O2. The activity of LPMO was measured in the presence of oxalic acid as an inhibitory compound.

NcLPMO9C [3] = target: T1, NcLPMO9C; test: Amplex Red–horseradish peroxidase assay of the uncoupling reaction (H2O2 production) of LPMO; format: biochemical; design: made in house; host or cells: Pichia pastoris X-33; settings: 1 µM NcLPMO9C, 1 µM NcCDHIIA, 10 mM lactose, 50 µM AmplexRed, 7 U mL-1 horseradish peroxidase; for Specific activity, NcLPMO9C - background: 100 mM sodium acetate buffer pH 6.0, without or with 100 mM oxalic acid; for Specific activity, NcLPMO9C: not background-corrected
Protocol: as §1

NcLPMO9C [4] = target: T1, NcLPMO9C; settings: for peroxidase activity of LPMO at higher concentrations: >100 mM of the substance, 2,6-DMP and hydrocoerulignone assays; for Residual activity to 100 mM acetate buffer, Hydro-Coerulignone: pH 6
Protocol: (§2) LPMO-activity assay using 2000 µM 2,6-DMP or 500 µM hydrocoerulignone were carried out in 100 mM sodium acetate buffer at pH 6.0, at 30 °C using 100 µM H2O2, at 469 nm and a reaction time of 300 s. For blank reactions, the same experiments were performed without adding LPMO. The resulting rate was subtracted from the rate with the addition of LPMO. One unit of LPMO activity is defined as the conversion of either 2 µmol 2,6-DMP or 1 µmol hydrocoerulignone or the formation of 1 µmol coerulignone (ε469 = 53,200 M^−1 cm^−1) per min under reaction conditions. For the inhibition tests, the 100 mM sodium acetate buffer at pH 6.0 was supplemented with 100 mM of the different compounds and the pH was checked before and after the measurements.
(§3) By measuring the LPMO activity in 100 mM sodium acetate buffer, we determined the maximum activity achievable for the applied conditions.

NcLPMO9C [5] = target: T1, NcLPMO9C; test: biochemical; settings: for IC50: IC50 values as summarised in the text, for both assays (2,6-DMP and hydrocoerulignone), peroxidase reaction; for remaining activity at 100000 µM: pH 6, read-out: Residual activity to 100 mM acetate buffer, Hydro-Coerulignone
Protocol: as §2, §3

## CC(=O)O [Acetic acid]
NcLPMO9C [1]
  Rate (Light Intensity at 620 nm min^−1): 0.14 ± 0.01 Light Intensity at 620 nm min^−1
NcLPMO9C [2]
  Total cello-oligomers produced: 14.6 µM
  cellobiose produced: 4.2 µM
  cellotetraose produced: 6.2 µM
  cellotriose produced: 4.3 µM
NcCDHIIA
  Specific activity, Background: 2.6 ± 0.1 U g-1
NcLPMO9C [3]
  Specific activity, NcLPMO9C - background: 4.9 ± 0.1 U g-1
  Specific activity, NcLPMO9C: 7.5 ± 0.1 U g-1

## O=C(O)CC(O)(CC(=O)O)C(=O)O [Citric acid]
NcLPMO9C [1]
  Rate (Light Intensity at 620 nm min^−1): 0.014 ± 0.001 Light Intensity at 620 nm min^−1
  activity: 8 ± 1%
NcLPMO9C [2]
  Total cello-oligomers produced: 17.3 µM
  cellobiose produced: 7.2 µM
  cellotetraose produced: 5.9 µM
  cellotriose produced: 4.2 µM
NcLPMO9C [4]
  peroxidase activity of LPMO at higher concentrations: nondetectable level

## O=CC=O [Glyoxal]
NcLPMO9C [4]
  Residual activity to 100 mM acetate buffer, Hydro-Coerulignone: 43.9 ± 3.6%

## O=CC(=O)O [Glyoxylic acid]
NcLPMO9C [4]
  Residual activity to 100 mM acetate buffer, Hydro-Coerulignone: 1.1 ± 0.3%

## N[C@@H](Cc1c[nH]cn1)C(=O)O [Histidine]
NcLPMO9C [4]
  peroxidase activity of LPMO at higher concentrations: nondetectable level
NcLPMO9C [5]
  IC50: ~1000 µM
  remaining activity at 100000 µM: 0.4 ± 0.2%

## c1c[nH]cn1 [Imidazole]
NcLPMO9C [4]
  Residual activity to 100 mM acetate buffer, Hydro-Coerulignone: 72.2 ± 3.9%

## CC(O)C(=O)O (centres unmarked) [Lactic acid]
NcLPMO9C [1]
  Rate (Light Intensity at 620 nm min^−1): 0.08 ± 0.02 Light Intensity at 620 nm min^−1
  activity: 47 ± 13%
NcLPMO9C [2]
  Total cello-oligomers produced: 12.4 µM
  cellobiose produced: 3.5 µM
  cellotetraose produced: 5.4 µM
  cellotriose produced: 3.6 µM

## O=S(=O)([O-])[O-].[Na+].[Na+] [Na2SO4]
NcLPMO9C [4]; read-out: IC50 values as summarised in the text, for both assays (2,6-DMP and hydrocoerulignone), peroxidase reaction
  IC50: ~30000 µM

## [F-].[Na+] [NaF]
NcLPMO9C [4]; peroxidase assays
  effect on the activity of the LPMO: did not show any effect on the activity of the LPMO until very high concentrations were used

## O=C(O)C(=O)O [Oxalic acid]
NcLPMO9C [1]
  Rate (Light Intensity at 620 nm min^−1): 0.002 ± 0.001 Light Intensity at 620 nm min^−1
NcLPMO9C [2]
  Total cello-oligomers produced: 15.8 µM
  cellobiose produced: 6.8 µM
  cellotetraose produced: 5.3 µM
  cellotriose produced: 3.7 µM
NcCDHIIA; 100 mM oxalic acid
  H2O2 production by NcCDHIIA: not inhibited
NcCDHIIA
  Specific activity, Background: 3.4 ± 0.1 U g-1
NcLPMO9C [4]
  peroxidase activity of LPMO at higher concentrations: nondetectable level
NcLPMO9C [3]
  Specific activity, NcLPMO9C - background: 0.1 ± 0.1 U g-1
  Specific activity, NcLPMO9C: 3.5 ± 0.1 U g-1
NcLPMO9C [5]
  IC50: ~1000 µM
  remaining activity at 100000 µM: 0.6 ± 0.1%

## O=P(O)(O)O [Phosphoric acid]
NcLPMO9C [1]
  Rate (Light Intensity at 620 nm min^−1): 0.107 ± 0.02 Light Intensity at 620 nm min^−1
NcLPMO9C [2]
  Total cello-oligomers produced: 14.8 µM
  cellobiose produced: 6.9 µM
  cellotetraose produced: 4.6 µM
  cellotriose produced: 3.3 µM

## CC(=O)C(=O)O [Pyruvic acid]
NcLPMO9C [2]
  Total cello-oligomers produced: 9.0 µM
  cellobiose produced: 5.6 µM
  cellotriose produced: 3.3 µM
NcLPMO9C [5]
  remaining activity at 100000 µM: 4.1 ± 0.4%
